This is an account of results in article PMC3752901 (Clinical cancer research : an official journal of the …, 2013).

Data set [1] can be described thus: Binding to serum proteins. The class given is in vitro ADME. Conditions: male, C57BL/6, mouse.
A further data set concerns the target T1, Abcc4 (Mus musculus, UniProt E9Q236).
T1 sequence (E9Q236 1-1325): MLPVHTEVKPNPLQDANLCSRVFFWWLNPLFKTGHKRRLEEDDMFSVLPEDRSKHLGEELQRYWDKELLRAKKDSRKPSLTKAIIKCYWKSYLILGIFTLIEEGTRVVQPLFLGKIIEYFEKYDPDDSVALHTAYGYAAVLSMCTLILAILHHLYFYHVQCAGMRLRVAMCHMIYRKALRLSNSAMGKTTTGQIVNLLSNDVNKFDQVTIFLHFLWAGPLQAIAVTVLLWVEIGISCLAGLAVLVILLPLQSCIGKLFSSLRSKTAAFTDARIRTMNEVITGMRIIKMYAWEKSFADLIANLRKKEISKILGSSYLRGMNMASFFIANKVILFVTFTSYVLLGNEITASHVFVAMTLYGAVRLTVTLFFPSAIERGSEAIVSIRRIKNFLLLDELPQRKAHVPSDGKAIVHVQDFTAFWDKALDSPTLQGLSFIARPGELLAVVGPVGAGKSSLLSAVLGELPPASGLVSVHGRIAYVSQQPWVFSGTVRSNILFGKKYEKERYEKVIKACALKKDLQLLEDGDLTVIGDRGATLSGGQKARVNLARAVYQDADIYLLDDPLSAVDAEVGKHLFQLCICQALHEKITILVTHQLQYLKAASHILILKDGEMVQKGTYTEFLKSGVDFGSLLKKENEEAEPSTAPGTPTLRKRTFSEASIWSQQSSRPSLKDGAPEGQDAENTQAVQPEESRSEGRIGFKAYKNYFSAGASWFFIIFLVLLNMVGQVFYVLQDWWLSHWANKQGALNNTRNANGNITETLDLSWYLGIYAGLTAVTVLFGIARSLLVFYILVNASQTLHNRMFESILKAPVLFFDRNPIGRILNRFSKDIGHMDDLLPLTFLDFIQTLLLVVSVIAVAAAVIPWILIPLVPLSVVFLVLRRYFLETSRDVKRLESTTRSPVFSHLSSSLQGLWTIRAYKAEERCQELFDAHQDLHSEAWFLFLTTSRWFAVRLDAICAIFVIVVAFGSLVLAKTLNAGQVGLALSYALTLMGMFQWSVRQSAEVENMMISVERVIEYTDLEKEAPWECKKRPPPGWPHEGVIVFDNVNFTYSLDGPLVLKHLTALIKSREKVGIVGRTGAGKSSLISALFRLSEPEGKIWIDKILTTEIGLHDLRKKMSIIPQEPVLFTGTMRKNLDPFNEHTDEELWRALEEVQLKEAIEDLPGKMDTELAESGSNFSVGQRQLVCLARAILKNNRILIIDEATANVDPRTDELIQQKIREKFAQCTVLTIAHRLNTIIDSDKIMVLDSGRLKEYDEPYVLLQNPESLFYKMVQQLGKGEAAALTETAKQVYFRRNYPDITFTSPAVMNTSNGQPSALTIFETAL
As to the kind of experiment: Ex vivo mucosal-to-serosal transport in isolated stomach sacs. As to conditions: Abcc4(−/−) vs wildtype mice. The class given is in vitro ADME.

Another data set deals with T2, human ABCC4 (Homo sapiens, UniProt O15439).
T2 sequence (O15439 1-1325): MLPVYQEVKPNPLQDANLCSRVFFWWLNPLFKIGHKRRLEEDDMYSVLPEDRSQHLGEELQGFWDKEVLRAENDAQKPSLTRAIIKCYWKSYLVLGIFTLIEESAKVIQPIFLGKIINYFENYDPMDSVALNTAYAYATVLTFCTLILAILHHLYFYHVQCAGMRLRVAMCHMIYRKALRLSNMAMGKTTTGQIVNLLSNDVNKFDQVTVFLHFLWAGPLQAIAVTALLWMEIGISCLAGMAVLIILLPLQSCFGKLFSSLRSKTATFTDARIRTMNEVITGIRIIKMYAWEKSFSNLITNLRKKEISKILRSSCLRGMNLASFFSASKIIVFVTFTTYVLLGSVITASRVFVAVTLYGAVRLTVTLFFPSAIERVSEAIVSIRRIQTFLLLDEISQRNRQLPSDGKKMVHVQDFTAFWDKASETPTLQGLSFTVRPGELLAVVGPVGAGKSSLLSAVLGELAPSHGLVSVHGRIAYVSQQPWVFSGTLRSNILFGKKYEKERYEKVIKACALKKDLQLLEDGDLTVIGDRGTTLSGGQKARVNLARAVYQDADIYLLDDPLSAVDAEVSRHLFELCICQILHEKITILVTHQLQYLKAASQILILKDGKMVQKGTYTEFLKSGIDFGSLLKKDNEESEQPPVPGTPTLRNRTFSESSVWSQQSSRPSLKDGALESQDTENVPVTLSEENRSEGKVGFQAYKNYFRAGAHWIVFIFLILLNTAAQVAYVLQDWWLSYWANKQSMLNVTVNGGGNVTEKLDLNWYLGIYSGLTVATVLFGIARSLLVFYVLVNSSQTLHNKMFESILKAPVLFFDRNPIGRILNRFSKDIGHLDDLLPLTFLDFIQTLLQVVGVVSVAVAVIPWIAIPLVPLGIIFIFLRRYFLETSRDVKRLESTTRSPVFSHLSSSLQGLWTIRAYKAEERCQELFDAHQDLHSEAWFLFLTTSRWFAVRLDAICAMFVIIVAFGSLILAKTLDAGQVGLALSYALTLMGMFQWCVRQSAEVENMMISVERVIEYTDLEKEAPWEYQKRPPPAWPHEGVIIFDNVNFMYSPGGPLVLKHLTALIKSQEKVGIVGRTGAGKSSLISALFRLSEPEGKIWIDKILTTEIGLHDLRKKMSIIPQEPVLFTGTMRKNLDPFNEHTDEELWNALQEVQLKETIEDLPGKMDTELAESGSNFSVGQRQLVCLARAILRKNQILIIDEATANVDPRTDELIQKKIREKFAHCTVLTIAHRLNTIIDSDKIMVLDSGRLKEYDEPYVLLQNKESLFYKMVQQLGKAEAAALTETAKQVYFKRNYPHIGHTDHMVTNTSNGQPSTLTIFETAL
As to conditions: 5 min, 1 μM.

The nature of data set [2]: Plasma pharmacokinetics in wildtype and Abcc4. As to conditions: for clearance / Cmax / Tmax: male, C57BL/6, mouse, plasma, 10 mg/kg; for clearance: CL.
The next data set has as its target T3, mouse Abcc4 (Mus musculus, UniProt E9Q236).
T3 sequence (E9Q236 1-1325): T1 sequence (E9Q236 1-1325)
Put plainly: Accumulation/efflux in Saos-2 cells transfected with Abcc4. As to conditions: 100 μM, 4-h incubation.

Setting [3] is: iv, i.v. 10 mg/kg, Abcc4(−/−) mice.
Setting [4] is: iv, i.v. 10 mg/kg, wildtype mice.
Where [5] appears, read: po, oral 10 mg/kg, Abcc4(−/−) mice.
Setting [6] is: po, oral 10 mg/kg, wildtype mice.

On to `Cc1nc(Nc2ncc(C(=O)Nc3c(C)cccc3Cl)s2)cc(N2CCN(CCO)CC2)n1` [dasatinib, Dasatinib], for which the fraction unbound (as a rule, free concentration divided by total concentration) in data set [1] (Abcc4(−/−) mice) is 0.0812 ± 0.00493; in data set [1] (wildtype mice), 0.087 ± 0.0044. For the same compound, the “reduction of drug transport to the serosal side with Abcc4-deficiency” value on Abcc4 is “up to 3.9 fold”. Moreover, at human ABCC4, the “accumulation in ABCC4-overexpressing vesicles compared to control vesicles” value turned out to be 3.0 fold. The values for the clearance in data set [2] (setting [3]) and in data set [2] (setting [4]) were 41.9 mL/min/kg and 49.6 mL/min/kg, respectively. Besides, the Cmax (in general, the highest concentration seen after dosing) was found to be 3460 ng/mL in data set [2] (setting [3]), 3390 ng/mL in data set [2] (setting [4]), 48.1 ± 16.5 ng/mL in data set [2] (setting [5]) and 182 ± 93.8 ng/mL in data set [2] (setting [6]). In addition, the time to peak (Tmax) (commonly the time from dosing to the highest level) in data set [2] (setting [5]) came to 2.19 ± 1.06 h; in data set [2] (setting [6]) it was 0.306 ± 0.223 h. For the same compound, the Ka in data set [2] (oral 10 mg/kg, Abcc4(−/−) mice) amounted to 2.49 ± 0.92 h⁻¹; in data set [2] (oral 10 mg/kg, wildtype mice), 34.3 ± 6.85 h⁻¹. Also, the “transport by mouse Abcc4 (accumulation in Saos-2 cells overexpressing Abcc4 compared to control cells)” value on mouse Abcc4 is reported as “significantly reduced accumulation”.
